Reference: patent US20180251765A1, “HIGH-THROUGHPUT SPLIT APTAMER SCREENING ASSAY” (BELLBROOK LABS, priority 2015, published 2018)
Like-named read-outs stand apart in the source and are kept apart here.

Columns and labels:
[1] = biological target: SAH riboswitch from D. aromatica; details: cited from earlier work
Dar-1 riboswitch = experiment: SAH dependent switch with FP readout, intact riboswitch with fluor-labeled oligo; format: binding, D. aromatica; details: for EC50: FP dose response
Text: (§1) The native riboswitch signaling mechanism was first leveraged by transducing the conformational switch that occurs upon SAH binding into a fluorescent signal. The goal was to identify an oligonucleotide that would bind to the riboswitch specifically when SAH was present due to the localized conformational disruption it causes (FIG. 3A). Using two well characterized riboswitches, Ref-1 (SEQ ID NO:1) and Dar-1 (SEQ ID NO:4) (Wang et al., 2008, Mol. Cell. 29(6):691-702), an unbiased, empirical approach was taken by testing a panel of 8-10 bp oligos that covered the entire sequence of each riboswitch. The oligos were labeled with fluors at the 5′ end so that binding could be detected by the increase in fluorescence polarization.
A robust, dose dependent FP shift under optimized conditions was observed, which was quite reproducible. However, the affinity of the riboswitch for SAH was much lower than the low nanomolar level expected, and it decreased further over time (see FIG. 3B and inset table for representative data with Dar-1). […] Moreover, the selectivity for SAH vs. SAM was much poorer than expected, less than 50-fold for both Dar-1 and Ref-1 rather than the 1000-fold-plus selectivity reported for the native riboswitch (Wang et al., 2008, Mol. Cell. 29(6):691-702). Despite significant effort to understand and eliminate the unstable nature of the SAH-riboswitch interaction, including confirming that both the riboswitch and the SAH were not degrading over time, a stable, high affinity SAH dependent signal was unable to be obtained. Thus, a split aptamer approach was next explored.

Ref-1 riboswitch = experiment: as above; format: binding, R. ferrireducens; details: intact Ref-1
Text: as §1
A robust, dose dependent FP shift under optimized conditions was observed, which was quite reproducible. However, the affinity of the riboswitch for SAH was much lower than the low nanomolar level expected, and it decreased further over time (see FIG. 3B and inset table for representative data with Dar-1). […] Moreover, the selectivity for SAH vs. SAM was much poorer than expected, less than 50-fold for both Dar-1 and Ref-1 rather than the 1000-fold-plus selectivity reported for the native riboswitch (Wang et al., 2008, Mol. Cell. 29(6):691-702). […]

[2] = test system: split SAH aptamer P152/P218, Eu construct; experiment: split aptamer SAH TR-FRET assay, Eu construct; format: binding, D. aromatica
[3] = test system: split Dar-1 riboswitch (P152/P218); experiment: split aptamer SAH FP assay; format: binding, D. aromatica
Experimental: Based on the predicted folding of the Dar-1 sequence and imputed SAH binding interactions (Wang et al., 2008, Mol Cell. 29(6):691-702), two versions of a split Dar-1 riboswitch were tested, comprised of either a 59 or 52 base 5′ element (P159 of SEQ ID NO:6 or P152 of SEQ ID NO:7) and the remaining 18 base 3′ element (P218 of SEQ ID NO:8). […] For simplicity, EC50 values were used as an approximation of ligand dissociation constants, or Kd. […] This is the first example of a split aptamer sensor with FP readout.
Selectivity vs. SAM is a critical parameter, as measurement of HMT enzyme activity requires detection of SAH in an excess of SAM. […] Thus, the selectivity for SAH is at least 200-fold and likely higher; however, measurements are limited by contamination of SAM with SAH. The combination of sensitivity and selectivity is reflected in a standard curve mimicking an HMT enzyme reaction, in which 200 nM SAM was decreased as SAH was added proportionately (FIG. 4D). To quantitatively assess the robustness of the split aptamer FP assay, the standard curve was done with sixteen replicates to allow determination of Z′ values, a commonly used HTS assay statistic that measures that incorporates both dynamic range and data variability (Zhang et al., 1999, J Biomol. Screen. 4(2):67-73). […] The Z′ measured in this Example was 0.56, indicative of a high quality assay.

[4] = test system: split SAH aptamer P152/P218, Tb construct; experiment: split aptamer SAH TR-FRET assay, Tb construct; format: binding, D. aromatica
Experimental: The split aptamer SAH detection assay was next formatted for TR-FRET readout. Luminescent lanthanides were attached to P152 of the SAH aptamer via streptavidin-biotin, and organic acceptor fluors were attached to P218 during synthesis. Both Tb and Eu lanthanide chelates (Life Technologies) were tested, as were four different organic fluors with excitation spectra overlapping the lanthanide emission (Alexa 633, Alexa 647, Cy5, and Dylight 650.)
Importantly, the signal was stable for at least 15 h.

[5] = biological target: SAH riboswitch from R. soanacearum; details: isothermal titration calorimetry; cited from earlier work
PRMT1 = PRMT1 (Homo sapiens, UniProt Q99873); details: read-out: Km (SAM); plot of velocity vs. SAM, FIG. 5F
[6] = test system: RNA aptamer for theophylline; details: on the basis of a single methyl group; cited from earlier work
[7] = biological target: dimethyl Arg in Histone H3 (H3R8Me2) (Homo sapiens, UniProt P68431); details: cited from earlier work
[8] = biological target: histone H4 acetylated at lysine 16 (H4K16Ac) (Homo sapiens, UniProt P62805); details: cited from earlier work

Chain of PRMT1 (Q99873 whole entry, species assumed): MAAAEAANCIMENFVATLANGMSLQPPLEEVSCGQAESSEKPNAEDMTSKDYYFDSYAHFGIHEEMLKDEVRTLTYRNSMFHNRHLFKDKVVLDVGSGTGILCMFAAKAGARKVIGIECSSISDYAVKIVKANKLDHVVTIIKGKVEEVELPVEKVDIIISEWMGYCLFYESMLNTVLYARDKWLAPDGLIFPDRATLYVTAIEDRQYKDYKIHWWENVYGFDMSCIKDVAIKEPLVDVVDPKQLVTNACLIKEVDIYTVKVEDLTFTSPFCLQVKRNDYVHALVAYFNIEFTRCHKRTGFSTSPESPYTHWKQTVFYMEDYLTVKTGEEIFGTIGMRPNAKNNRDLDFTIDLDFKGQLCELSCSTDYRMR

In the case of `Nc1ncnc2c1ncn2[C@@H]1O[C@H](CSCC[C@H](N)C(=O)O)[C@@H](O)[C@H]1O` [SAH, S-adenosylhomocysteine], the Kd ([1]; equilibrium binding analysis) is listed as 20 nM, the EC50 (Dar-1 riboswitch; after 3 h, read-out: EC50 for SAH after 3 h) is listed as 1900 nM and the EC50 (Dar-1 riboswitch; initial reading, read-out: initial EC50 for SAH) is listed as 472 nM. The “selectivity for SAH vs. SAM” value (Dar-1 riboswitch; intact Dar-1) was “less than 50 fold”, the “selectivity for SAH vs. SAM” value (Ref-1 riboswitch) was “less than 50 fold” and the EC50 [2] was 16 nM. For the same compound, the EC50 ([3]; from FP dose response curves FIG. 4B, used as approximation of Kd) was 20 to 25 nM, the “selectivity for SAH vs. SAM” value ([3]; limited by contamination of SAM with SAH) was “at least 200 fold” and the EC50 [4] was 23 nM. For the same compound, the Kd [5] was 30 nM.

In the case of `C[S+](CC[C@H](N)C(=O)[O-])C[C@H]1O[C@@H](n2cnc3c(N)ncnc32)[C@H](O)[C@@H]1O` (stereo partly drawn) [SAM, S-adenosylmethionine], the “selectivity for SAH versus SAM (affinity for SAM fold lower)” value ([1]; native riboswitch) is given as “at least 1000 fold” and the Km (PRMT1) is given as 0.014 µM.

For `Cn1c(=O)c2[nH]cnc2n(C)c1=O` [theophylline], the selectivity against caffeine [6] is listed as “more than 10^4 fold”.

For “H3R8Me2 aptamer: 50 base RNA aptamer developed for dimethyl Arg in Histone H3 (GAUGGGUCAGCAUGUAGCCAGGCAGGGCCGUGUGAGCUUGUGCUGAUGUG; RNA, backbone and methylation of C not given here)”, the Kd ([7]; read-out: affinity for the target modified peptide) is given as 12 nM, the “selectivity for a similar histone PTM (H3K9Me2)” value ([7]; vs H3K9Me2) is given as 8.1 fold and the “selectivity for the unmodified peptide” value ([7]; vs unmodified peptide) is given as 3.5 fold.

In the case of “H4K16Ac aptamer: 48 base DNA aptamer for histone H4 acetylated at lysine 16 (AGACGTAAGTTAATTGGACTTGGTCGTGTGCGGCACAGCGATTGAAAT; DNA, backbone and methylation of C not given here)”, the “selectivity versus Histone H4 acetylation at K8 or unmodified Histone H4 sequence” value [8] is listed as “more than 2,000 fold” and the Kd ([8]; read-out: Kd for target PTM) is listed as 21 nM.
